Where two headings read alike, the source gives them in different places.
Tests used:
[1] = molecular target: recombinant 0N4R Tau fibrils (Homo sapiens (Human), UniProt P10636); test: ^3H-THK5117 competition binding to tau fibrils in vitro; settings: for IC50: competition with 3 nM [^3H]-THK5117, 0N4R tau fibrils, 1 h, 22° C., average if run more than once
Experimental: (§1) ^3H-THK5117 Competition Binding to Tau Fibrils In Vitro
(§2) Preparation of recombinant 0N4R Tau fibrils was performed as previously described in Morozova, O. A., Biochemistry (2013), Vol., 52(40), pages 6960-6967. Competition binding experiments to 0N4R Tau fibrils were performed by incubating increasing concentrations [10^−10-10^−6 M] of the Example compounds of the invention, or the known tau specific ligand PBB3 (PBB3 was synthesized as previously described in M. Maruyama, et al, Neuron 2013, 79, 1094-1108) or MK6240 (Novandi Chemistry AB), in the presence of 3 nM of the known tau ligand [^3H]-THK5117 (Novandi Chemistry) and 0.2 mM 0N4R tau fibrils in binding buffer (50 mM Tris-HCl, pH 7.4, 0.1% BSA) for 1 h in the dark, and at 22° C. The incubation was terminated by filtration through a Whatman GF/B glass filter (Whatman International, Kent, UK) using a Brandel cell harvester. The filter was then washed rapidly four times with 3 mL of ice-cold wash buffer (5 mM Tris-HCl, 0.25 mM NaCl, 5% EtOH), and equilibrated for 1 h in scintillation vials containing 5 mL of Ultima Gold scintillation fluid before being analysed using a Liquid Scintillation Analyzer.
(§3) The results are shown in Table 2 in the column labeled “Tau IC50”.
(§4) Relative Selectivity for Tau vs. Aβ
(§5) Relative selectivity for tau compared to Aβ for the exemplified compounds was calculated using the results for the [^3H]-THK5117 tau and [^3H]-AZD2184 Aβ assays described above. The calculated results are shown in Table 2 in the column labeled “Selectivity for tau relative to Aβ”.

[2] = system: recombinant 0N4R Tau fibrils; test: as above; settings: calculated from [^3H]-THK5117 tau and [^3H]-AZD2184 Aβ assay results
Experimental: as §1, §2, §3, §4, §5

[3] = molecular target: Aβ(1-42) amyloid fibrils (Homo sapiens, UniProt P05067); test: ^3H-AZD2184 competition binding to Aβ(1-42) fibrils in vitro; settings: competition with [^3H]-AZD2184, Aβ(1-42) amyloid fibrils; average if run more than once
Sequence of Aβ(1-42) amyloid fibrils (P05067 672-713 limits assumed): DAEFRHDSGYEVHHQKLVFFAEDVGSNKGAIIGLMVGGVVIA
Experimental: ^3H-AZD2184 Competition Binding to Aβ(1-42) Fibrils In Vitro
Competition binding experiments to Aβ(1-42) amyloid fibrils were performed as previously described in Jureus, A., et al, Journal of Neurochemistry (2010), Vol. 114, pages 784-794 for the Example compounds of the invention indicated in Table 2, or the known tau specific ligand PBB3 (PBB3 was synthesized as previously described in M. Maruyama, et al, Neuron 2013, 79, 1094-1108).
The results are shown in Table 2 in the column labeled “Aβ IC50”.

[4] = cited from earlier work

Sequence of recombinant 0N4R Tau fibrils (Homo sapiens (Human), UniProt P10636) (P10636 other isoform, or with tags, fused parts or gaps): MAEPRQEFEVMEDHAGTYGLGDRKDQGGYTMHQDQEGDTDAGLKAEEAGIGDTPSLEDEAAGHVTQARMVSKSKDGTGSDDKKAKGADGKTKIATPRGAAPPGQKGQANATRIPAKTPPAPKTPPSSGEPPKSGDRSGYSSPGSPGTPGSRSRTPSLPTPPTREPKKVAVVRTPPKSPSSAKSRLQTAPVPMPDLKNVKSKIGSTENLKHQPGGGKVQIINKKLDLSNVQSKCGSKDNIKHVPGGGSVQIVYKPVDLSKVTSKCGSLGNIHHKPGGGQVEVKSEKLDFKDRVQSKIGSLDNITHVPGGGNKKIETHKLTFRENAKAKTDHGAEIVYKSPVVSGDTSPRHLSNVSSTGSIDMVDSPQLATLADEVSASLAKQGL

Row | Compound | IC50 [1] | Selectivity for tau relative to Aβ [2] | IC50 [3] | binding in the recombinant 4R tau fibrils assay (in words) ([1]; recombinant 4R tau fibrils, [^3H]-THK5117 competition) | radiochemical purity after exposure to fluorescent light ([4]; 1 min after exposure to fluorescent light) | radiochemical purity after exposure to fluorescent light ([4]; from 10 to 60 min after exposure to fluorescent light)
1 | COc1ccc2nc(-c3ccc(N4CC[C@@H](O)C4)nc3)sc2c1 [Compound 2, (3R)-1-[5-(6-Methoxy-1,3-benzothiazol-2-yl)pyridin-2-yl]pyrrolidin-3-ol] | 18 nM | 1.2 | 22 nM |  |  | 
2 | OCC1CN(c2ccc(-c3cc4cc(O)ccc4[nH]3)c(F)n2)C1 [Compound 4] | 38 nM | 1.2 | 47 nM |  |  | 
3 | COc1ccc2nc(-c3ccc(N4C[C@H](O)C[C@H](O)C4)nc3)sc2c1 [Compound 12, (3R,5S)-1-[5-(6-Methoxy-1,3-benzothiazol-2-yl)pyridin-2-yl]piperidine-3,5-diol] | 40 nM |  |  |  |  | 
4 | OC[C@@H]1CCN(c2ccc(-c3cc4cc(O)ccc4[nH]3)c(F)n2)C[C@H]1O [Compound 18, 2-{2-Fluoro-6-[(3S,4S)-3-hydroxy-4-(hydroxymethyl)piperidin-1-yl]pyridin-3-yl}-1H-indol-5-ol] | 29 nM |  |  |  |  | 
5 | OCC1(O)CCN(c2ccc(-c3cc4cc(O)ccc4[nH]3)c(F)n2)CC1 [Compound 21, 2-{2-Fluoro-6-[4-hydroxy-4-(hydroxymethyl)piperidin-1-yl]pyridin-3-yl}-1H-indol-5-ol] | 40 nM | 0.2 | 9 nM |  |  | 
6 | COc1ccc2nc(-c3ccc(N4C[C@H](O)C[C@@H](O)C4)nc3)sc2c1 [Compound 25, (3R,5R)-1-[5-(6-Methoxy-1,3-benzothiazol-2-yl)pyridin-2-yl]piperidine-3,5-diol] | 62 nM |  |  |  |  | 
7 | OC[C@@H]1CCN(c2ccc(-c3cc4cc(O)ccc4[nH]3)c(F)n2)C[C@@H]1O [Compound 26] | 48 nM |  |  |  |  | 
8 | Oc1ccc2[nH]c(-c3ccc(N4CCC[C@@H](O)C4)nc3)cc2c1 [Compound 27, 2-{6-[(3R)-3-Hydroxypiperidin-1-yl]pyridin-3-yl}-1H-indol-5-ol] | 25 nM | 1.3 | 32 nM |  |  | 
9 | Oc1ccc2[nH]c(-c3cnc(N4CCC[C@@H](O)C4)nc3)cc2c1 [Compound 30, 2-{2-[(3R)-3-Hydroxypiperidin-1-yl]pyrimidin-5-yl}-1H-indol-5-ol] | 150 nM | 0.6 | 90 nM |  |  | 
10 | O[C@@H]1CCCN(c2ncc(-c3cc4cc(OCCOCCOCCF)ccc4[nH]3)cn2)C1 [Compound 32, (3R)-1-[5-(5-{2-[2-(2-Fluoroethoxy)ethoxy]ethoxy}-1H-indol-2-yl)pyrimidin-2-yl]piperidin-3-ol] | 89 nM | 0.3 | 25 nM |  |  | 
11 | Nc1c(F)ccc2cnc(-n3ccc4ccncc43)cc12 [MK-6420, reference compound] | > 1000 nM |  |  | inactive |  | 
12 | CNc1ccc(/C=C/C=C/c2nc3ccc(O)cc3s2)cn1 [^11C-PBB3] |  |  |  |  | 77% | approximately 50%

The remaining compounds from weak to strong by IC50 [1], led by results:

Row | IC50 [1] | Selectivity for tau relative to Aβ [2] | IC50 [3] | binding in the recombinant 4R tau fibrils assay (in words) ([1]; recombinant 4R tau fibrils, [^3H]-THK5117 competition) | Compound | radiochemical purity after exposure to fluorescent light ([4]; 1 min after exposure to fluorescent light) | radiochemical purity after exposure to fluorescent light ([4]; from 10 to 60 min after exposure to fluorescent light)
13 | 16 nM |  |  |  | COc1ccc2nc(-c3ccc(N4CC[C@@H](O)[C@H](O)C4)nc3)sc2c1 [Compound 8, (3R,4R)-1-[5-(6-Methoxy-1,3-benzothiazol-2-yl)pyridin-2-yl]piperidine-3,4-diol] |  | 
14 | 14 nM | 5.7 | 80 nM |  | O[C@@H]1CCCN(c2ccc(-c3cc4cc(OCCOCCOCCF)ccc4[nH]3)cn2)C1 [Compound 29, (3R)-1-[5-(5-{2-[2-(2-Fluoroethoxy)ethoxy]ethoxy}-1H-indol-2-yl)pyridin-2-yl]piperidin-3-ol] |  | 
15 | 11 nM | 1 | 11 nM |  | COc1ccc2nc(-c3ccc(N4CC[C@H](O)C4)nc3)sc2c1 [Compound 3, (3S)-1-[5-(6-Methoxy-1,3-benzothiazol-2-yl)pyridin-2-yl]pyrrolidin-3-ol] |  | 
16 | 11 nM |  |  |  | COc1ccc2nc(-c3ccc(N4CC[C@@H](CO)[C@H](O)C4)nc3)sc2c1 [Compound 11, (3S,4S)-4-(Hydroxymethyl)-1-[5-(6-methoxy-1,3-benzothiazol-2-yl)pyridin-2-yl]piperidin-3-ol] |  | 
17 | 10 nM | 1.2 | 12 nM |  | O[C@@H]1CCCN(c2ncc(-c3cc4cc(OCCF)ccc4[nH]3)cn2)C1 [Compound 31, (3R)-1-{5-[5-(2-Fluoroethoxy)-1H-indol-2-yl]pyrimidin-2-yl}piperidin-3-ol] |  | 
18 | 9 nM | 8.9 | 80 nM |  | Oc1ccc2[nH]c(-c3ccc(N4CCC[C@H](O)C4)nc3F)cc2c1 [Compound 7, 2-{2-Fluoro-6-[(3S)-3-hydroxypiperidin-1-yl]pyridin-3-yl}-1H-indol-5-ol] |  | 
19 | 9 nM | 7.2 | 65 nM |  | COc1ccc2nc(-c3ccc(N4CCC(O)(CO)CC4)nc3)sc2c1 [Compound 14, 4-(Hydroxymethyl)-1-[5-(6-methoxy-1,3-benzothiazol-2-yl)pyridin-2-yl]piperidin-4-ol] |  | 
20 | 9 nM |  |  |  | COc1ccc2nc(-c3ccc(N4CC[C@@H](CO)[C@@H](O)C4)nc3)sc2c1 [Compound 24] |  | 
21 | 7 nM | 1.6 | 11 nM |  | OCCC1CN(c2ccc(-c3cc4cc(O)ccc4[nH]3)c(F)n2)C1 [Compound 5] |  | 
22 | 7 nM | 4 | 28 nM |  | CNc1ccc(/C=C/C=C/c2nc3ccc(O)cc3s2)cn1 [PBB3, reference compound] |  | 
23 | 6 nM |  |  |  | COc1ccc2nc(-c3ccc(N4CC[C@@H](O)[C@@H](O)C4)nc3)sc2c1 [Compound 23, (3S,4R)-1-[5-(6-Methoxy-1,3-benzothiazol-2-yl)pyridin-2-yl]piperidine-3,4-diol] |  | 
24 | 6 nM |  |  |  | COC(=O)C1CN(c2ccc(-c3cc4cc(O)ccc4[nH]3)c(F)n2)C1 [Compound 33, Methyl 1-[6-Fluoro-5-(5-hydroxy-1H-indol-2-yl)pyridin-2-yl]azetidine-3-carboxylate] |  | 
25 | 4 nM | 2 | 8 nM |  | COc1ccc2nc(-c3ccc(N4CCCC(O)C4)nc3)sc2c1 (stereo not shown) [Compound 1, 1-[5-(6-Methoxy-1,3-benzothiazol-2-yl)pyridin-2-yl]piperidin-3-ol] |  | 
26 | 4 nM | 2 | 8 nM |  | O[C@@H]1CCCN(c2ccc(-c3cc4cc(OCCF)ccc4[nH]3)cn2)C1 [Compound 28, (3R)-1-{5-[5-(2-Fluoroethoxy)-1H-indol-2-yl]pyridin-2-yl}piperidin-3-ol] |  | 
27 | 3 nM | 1 | 3 nM |  | OCC1CCN(c2ccc(-c3cc4ccc(O)cc4[nH]3)c(F)n2)CC1 [Compound 22, 2-{2-Fluoro-6-[4-(hydroxymethyl)piperidin-1-yl]pyridin-3-yl}-1H-indol-6-ol] |  | 
28 | 1 nM | 37 | 37 nM |  | Oc1ccc2[nH]c(-c3ccc(N4CCC[C@@H](O)C4)nc3F)cc2c1 [Compound 6, 2-{2-Fluoro-6-[(3R)-3-hydroxypiperidin-1-yl]pyridin-3-yl}-1H-indol-5-ol] |  | 

Source: patent US20240165276A1, “SELECTIVE LIGANDS FOR TAU AGGREGATES” (KARIN & STEN MORTSTEDT CBD SOLUTIONS AB, priority 2019, published 2024)
